Assay results published in PubChem BioAssay (NCI).
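A five-concentration, 48-hour dose response in 96-well plates underlies each endpoint, interpolated linearly between surrounding concentrations. TGI: total growth inhibition.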

How the values were obtained:
Experiment in all cases: NCI anticancer screen, dose series, 48 h
SW-620 colon = system: SW-620 colon
RPMI-8226 leukemia = system: RPMI-8226 leukemia
NCI-H460 lung = system: NCI-H460 lung
SK-OV-3 ovarian = system: SK-OV-3 ovarian
SF-539 CNS = system: SF-539 CNS
CAKI-1 renal = system: CAKI-1 renal
MALME-3M melanoma = system: MALME-3M melanoma
OVCAR-5 ovarian = system: OVCAR-5 ovarian
SK-MEL-28 melanoma = system: SK-MEL-28 melanoma
COLO 205 colon = system: COLO 205 colon
MOLT-4 leukemia = system: MOLT-4 leukemia
SF-295 CNS = system: SF-295 CNS
KM12 colon = system: KM12 colon
OVCAR-4 ovarian = system: OVCAR-4 ovarian
A549 NSCLC = system: A549 NSCLC
HOP-92 NSCLC = system: HOP-92 NSCLC
SK-MEL-5 melanoma = system: SK-MEL-5 melanoma
CCRF-CEM leukemia = system: CCRF-CEM leukemia
NCI-H522 lung = system: NCI-H522 lung
EKVX NSCLC = system: EKVX NSCLC
DU-145 prostate = system: DU-145 prostate
HCT-116 colon = system: HCT-116 colon
MCF7 breast = system: MCF7 breast
786-0 renal = system: 786-0 renal
RXF 393 renal = system: RXF 393 renal
OVCAR-3 ovarian = system: OVCAR-3 ovarian
MDA-N = system: MDA-N
PC-3 prostate = system: PC-3 prostate
UACC-62 melanoma = system: UACC-62 melanoma
MDA-MB-231 breast = system: MDA-MB-231 breast
A498 renal = system: A498 renal
K-562 leukemia = system: K-562 leukemia
T-47D breast = system: T-47D breast
MDA-MB-435 = system: MDA-MB-435
HL-60(TB) leukemia = system: HL-60(TB) leukemia
LOX IMVI melanoma = system: LOX IMVI melanoma
NCI/ADR-RES ovarian = system: NCI/ADR-RES ovarian
SR leukemia = system: SR leukemia
UACC-257 melanoma = system: UACC-257 melanoma
ACHN renal = system: ACHN renal
HT29 colon = system: HT29 colon
NCI-H23 lung = system: NCI-H23 lung
SNB-19 CNS = system: SNB-19 CNS
HS 578T breast = system: HS 578T breast
NCI-H226 lung = system: NCI-H226 lung
IGROV1 ovarian = system: IGROV1 ovarian
TK-10 renal = system: TK-10 renal
M14 melanoma = system: M14 melanoma
SNB-75 CNS = system: SNB-75 CNS
SN12C renal = system: SN12C renal
OVCAR-8 ovarian = system: OVCAR-8 ovarian
SF-268 CNS = system: SF-268 CNS
HOP-62 NSCLC = system: HOP-62 NSCLC
UO-31 renal = system: UO-31 renal
HCT-15 colon = system: HCT-15 colon
HCC-2998 colon = system: HCC-2998 colon
U251 CNS = system: U251 CNS
SK-MEL-2 melanoma = system: SK-MEL-2 melanoma

`CC(CO)CCNc1ncnc2c1ncn2CCC(=O)O` (stereo unspecified) showed a TGI (SW-620 colon) of over 100 µM, a TGI (RPMI-8226 leukemia) of over 100 µM and a TGI (NCI-H460 lung) of over 100 µM. For the same molecule, the TGI (SK-OV-3 ovarian) was over 100 µM, the TGI (SF-539 CNS) was over 100 µM and the TGI (CAKI-1 renal) was over 100 µM. It also gave a TGI (MALME-3M melanoma) of over 100 µM, a TGI (OVCAR-5 ovarian) of over 100 µM and a TGI (SK-MEL-28 melanoma) of over 100 µM. The TGI (COLO 205 colon) was over 100 µM, the TGI (MOLT-4 leukemia) was over 100 µM and the TGI (SF-295 CNS) was over 100 µM. For the same molecule, the TGI (KM12 colon) was over 100 µM, the TGI (OVCAR-4 ovarian) was over 100 µM and the TGI (A549 NSCLC) was over 100 µM. The TGI (HOP-92 NSCLC) was over 100 µM, the TGI (SK-MEL-5 melanoma) was over 100 µM and the TGI (CCRF-CEM leukemia) was over 100 µM. It also gave a TGI (NCI-H522 lung) of over 100 µM, a TGI (EKVX NSCLC) of over 100 µM and a TGI (DU-145 prostate) of over 100 µM. For the same molecule, the TGI (HCT-116 colon) was over 100 µM, the TGI (MCF7 breast) was over 100 µM and the TGI (786-0 renal) was over 100 µM. For the same molecule, the TGI (RXF 393 renal) was over 100 µM, the TGI (OVCAR-3 ovarian) was over 100 µM and the TGI (MDA-N) was over 100 µM. For the same molecule, the TGI (PC-3 prostate) was over 100 µM, the TGI (UACC-62 melanoma) was over 100 µM and the TGI (MDA-MB-231 breast) was over 100 µM. It also gave a TGI (A498 renal) of over 100 µM, a TGI (K-562 leukemia) of over 100 µM and a TGI (T-47D breast) of over 100 µM. For the same molecule, the TGI (MDA-MB-435) was over 100 µM, the TGI (HL-60(TB) leukemia) was over 100 µM and the TGI (LOX IMVI melanoma) was over 100 µM. For the same molecule, the TGI (NCI/ADR-RES ovarian) was over 100 µM, the TGI (SR leukemia) was over 100 µM and the TGI (UACC-257 melanoma) was over 100 µM. The TGI (ACHN renal) was over 100 µM, the TGI (HT29 colon) was over 100 µM and the TGI (NCI-H23 lung) was over 100 µM. It also gave a TGI (SNB-19 CNS) of over 100 µM, a TGI (HS 578T breast) of over 100 µM and a TGI (NCI-H226 lung) of over 100 µM. For the same molecule, the TGI (IGROV1 ovarian) was over 100 µM, the TGI (TK-10 renal) was over 100 µM and the TGI (M14 melanoma) was over 100 µM. The TGI (SNB-75 CNS) was over 100 µM, the TGI (SN12C renal) was over 100 µM and the TGI (OVCAR-8 ovarian) was over 100 µM. It also gave a TGI (SF-268 CNS) of over 100 µM, a TGI (HOP-62 NSCLC) of over 100 µM and a TGI (UO-31 renal) of over 100 µM.

`Cc1oc2c(cc(O)c3ccccc32)c2cccc1-2` showed a TGI (SW-620 colon) of over 100 µM, a TGI (HCT-15 colon) of over 100 µM and a TGI (RPMI-8226 leukemia) of over 100 µM. For the same molecule, the TGI (NCI-H460 lung) was over 100 µM, the TGI (SK-OV-3 ovarian) was over 100 µM and the TGI (SF-539 CNS) was over 100 µM. The TGI (CAKI-1 renal) was over 100 µM, the TGI (MALME-3M melanoma) was over 100 µM and the TGI (OVCAR-5 ovarian) was over 100 µM. For the same molecule, the TGI (SK-MEL-28 melanoma) was over 100 µM, the TGI (COLO 205 colon) was over 100 µM and the TGI (MOLT-4 leukemia) was over 100 µM. The TGI (SF-295 CNS) was over 100 µM, the TGI (KM12 colon) was over 100 µM and the TGI (A549 NSCLC) was over 100 µM. For the same molecule, the TGI (HOP-92 NSCLC) was over 100 µM, the TGI (SK-MEL-5 melanoma) was over 100 µM and the TGI (CCRF-CEM leukemia) was over 100 µM. The TGI (EKVX NSCLC) was over 100 µM, the TGI (DU-145 prostate) was over 100 µM and the TGI (HCT-116 colon) was over 100 µM. The TGI (MCF7 breast) was over 100 µM, the TGI (786-0 renal) was over 100 µM and the TGI (OVCAR-3 ovarian) was over 100 µM. It also gave a TGI (MDA-N) of over 100 µM, a TGI (PC-3 prostate) of over 100 µM and a TGI (MDA-MB-231 breast) of 34.8 µM. The TGI (A498 renal) was over 100 µM, the TGI (T-47D breast) was over 100 µM and the TGI (MDA-MB-435) was over 100 µM. The TGI (HL-60(TB) leukemia) was over 100 µM, the TGI (LOX IMVI melanoma) was over 100 µM and the TGI (NCI/ADR-RES ovarian) was over 100 µM. The TGI (SR leukemia) was over 100 µM, the TGI (HCC-2998 colon) was over 100 µM and the TGI (UACC-257 melanoma) was over 100 µM. The TGI (ACHN renal) was over 100 µM, the TGI (HT29 colon) was over 100 µM and the TGI (NCI-H23 lung) was over 100 µM. It also gave a TGI (U251 CNS) of over 100 µM, a TGI (SNB-19 CNS) of over 100 µM and a TGI (HS 578T breast) of over 100 µM. It also gave a TGI (TK-10 renal) of over 100 µM, a TGI (M14 melanoma) of 76.7 µM and a TGI (SNB-75 CNS) of over 100 µM. The TGI (SN12C renal) was over 100 µM, the TGI (OVCAR-8 ovarian) was over 100 µM and the TGI (SF-268 CNS) was over 100 µM. It also gave a TGI (HOP-62 NSCLC) of over 100 µM.

Work on `Cc1ccc(C(=O)N/N=C(\N=Nc2cccc(C)c2)c2ccc(N(CCC#N)CCC#N)cc2C)cc1` yielded a TGI (SW-620 colon) of over 100 µM, a TGI (HCT-15 colon) of over 100 µM and a TGI (RPMI-8226 leukemia) of over 100 µM. It also gave a TGI (NCI-H460 lung) of over 100 µM, a TGI (SK-OV-3 ovarian) of over 100 µM and a TGI (SF-539 CNS) of over 100 µM. For the same molecule, the TGI (CAKI-1 renal) was over 100 µM, the TGI (OVCAR-5 ovarian) was over 100 µM and the TGI (SK-MEL-28 melanoma) was 61.4 µM. It also gave a TGI (COLO 205 colon) of over 100 µM, a TGI (MOLT-4 leukemia) of over 100 µM and a TGI (SF-295 CNS) of over 100 µM. It also gave a TGI (KM12 colon) of over 100 µM, a TGI (OVCAR-4 ovarian) of over 100 µM and a TGI (A549 NSCLC) of over 100 µM. For the same molecule, the TGI (HOP-92 NSCLC) was over 100 µM, the TGI (SK-MEL-5 melanoma) was over 100 µM and the TGI (CCRF-CEM leukemia) was over 100 µM. The TGI (EKVX NSCLC) was over 100 µM, the TGI (DU-145 prostate) was over 100 µM and the TGI (MCF7 breast) was over 100 µM. It also gave a TGI (RXF 393 renal) of over 100 µM, a TGI (OVCAR-3 ovarian) of over 100 µM and a TGI (MDA-N) of over 100 µM. It also gave a TGI (PC-3 prostate) of over 100 µM, a TGI (UACC-62 melanoma) of over 100 µM and a TGI (MDA-MB-231 breast) of over 100 µM. The TGI (A498 renal) was over 100 µM, the TGI (K-562 leukemia) was over 100 µM and the TGI (T-47D breast) was over 100 µM. For the same molecule, the TGI (MDA-MB-435) was over 100 µM, the TGI (HL-60(TB) leukemia) was over 100 µM and the TGI (LOX IMVI melanoma) was over 100 µM. The TGI (NCI/ADR-RES ovarian) was over 100 µM, the TGI (SR leukemia) was over 100 µM and the TGI (HCC-2998 colon) was over 100 µM. The TGI (UACC-257 melanoma) was over 100 µM, the TGI (ACHN renal) was over 100 µM and the TGI (HT29 colon) was over 100 µM. It also gave a TGI (NCI-H23 lung) of over 100 µM, a TGI (U251 CNS) of over 100 µM and a TGI (SNB-19 CNS) of over 100 µM. For the same molecule, the TGI (HS 578T breast) was over 100 µM, the TGI (NCI-H226 lung) was over 100 µM and the TGI (IGROV1 ovarian) was over 100 µM. It also gave a TGI (TK-10 renal) of over 100 µM, a TGI (M14 melanoma) of over 100 µM and a TGI (SK-MEL-2 melanoma) of over 100 µM. For the same molecule, the TGI (SNB-75 CNS) was over 100 µM, the TGI (OVCAR-8 ovarian) was over 100 µM and the TGI (SF-268 CNS) was over 100 µM. For the same molecule, the TGI (HOP-62 NSCLC) was over 100 µM and the TGI (UO-31 renal) was over 100 µM.
